Article PMC3763632, “Radiosynthesis and Radiotracer Properties of a 7-(2-[^18F]Fluoroethoxy)-6-methoxypyrrolidinylquinazoline for Imaging of Phosphodiesterase 10A with PET” (Pharmaceuticals, 2012)
Where “and” joins values, the source holds several entries; their conditions need not be identical. Equal entries are not always repeated. Where two headings read alike, the source gives them in different places.

Key:
[1] = log D7.0 by RP-HPLC retention; type: physicochemical; details: MeCN/NH4OAc, pH 7.0, read-out: Log D
Excerpt: To clarify these findings, we determined the ligand distribution coefficients for [^18/19F]IV experimentally, under physiological pH conditions in solid-liquid phase systems via retention on RP-HPLC, and in liquid-liquid phase systems by conventional shake-flask method. […] All in one, an experimental log D7.0–7.4 value of ~2.7 promised a good potential for brain uptake of [^18F]IV in vivo, attended by low unspecific binding.
Referring to an OECD guideline and using a series of reference compounds (nitrobenzene, p-nitrophenol, benzene, toluene, chlorobenzene, benzophenone, naphthalene, 1,4-dibromobenzene, biphenyl, diphenylether, 1,4-diiodobenzene) with known log POW values comprised between 1.89 and 4.64, retention times were determined on two reversed phase columns (Multospher 120 RP-18 AQ, 250 mm × 4.6 mm, 5 μm, CS-Chromatographie Service GmbH, Langerwehe, Germany; SupelcosilTM ABZ + Plus, 250 × 4 mm, 5 μm, Supelco, Bellefonte, PA, USA). […] Dead times t0 were determined by retention of thiourea. Corresponding capacity factors k for all compounds were calculated and plotted as log k versus log P of the standard compounds, affording calibration curves (Microcal^TM Origin 6.0, Microcal Software, Inc., Northhampton, MA, USA). […]

[2] = molecular target: T1, PDE10A (Homo sapiens, UniProt Q9Y233); assay: Homologous competitive binding on membrane homogenates of PDE10A-transfected SF21 cells; details: read-out: IC50 (homologous competition vs [18F]IV)
T1 construct: purchased Biocrea GmbH, Radebeul, Germany; host or cells: SF21 insect cells (PDE10A-transfected; baculovirus system is mentioned)
T1 sequence (Q9Y233 whole entry, species assumed): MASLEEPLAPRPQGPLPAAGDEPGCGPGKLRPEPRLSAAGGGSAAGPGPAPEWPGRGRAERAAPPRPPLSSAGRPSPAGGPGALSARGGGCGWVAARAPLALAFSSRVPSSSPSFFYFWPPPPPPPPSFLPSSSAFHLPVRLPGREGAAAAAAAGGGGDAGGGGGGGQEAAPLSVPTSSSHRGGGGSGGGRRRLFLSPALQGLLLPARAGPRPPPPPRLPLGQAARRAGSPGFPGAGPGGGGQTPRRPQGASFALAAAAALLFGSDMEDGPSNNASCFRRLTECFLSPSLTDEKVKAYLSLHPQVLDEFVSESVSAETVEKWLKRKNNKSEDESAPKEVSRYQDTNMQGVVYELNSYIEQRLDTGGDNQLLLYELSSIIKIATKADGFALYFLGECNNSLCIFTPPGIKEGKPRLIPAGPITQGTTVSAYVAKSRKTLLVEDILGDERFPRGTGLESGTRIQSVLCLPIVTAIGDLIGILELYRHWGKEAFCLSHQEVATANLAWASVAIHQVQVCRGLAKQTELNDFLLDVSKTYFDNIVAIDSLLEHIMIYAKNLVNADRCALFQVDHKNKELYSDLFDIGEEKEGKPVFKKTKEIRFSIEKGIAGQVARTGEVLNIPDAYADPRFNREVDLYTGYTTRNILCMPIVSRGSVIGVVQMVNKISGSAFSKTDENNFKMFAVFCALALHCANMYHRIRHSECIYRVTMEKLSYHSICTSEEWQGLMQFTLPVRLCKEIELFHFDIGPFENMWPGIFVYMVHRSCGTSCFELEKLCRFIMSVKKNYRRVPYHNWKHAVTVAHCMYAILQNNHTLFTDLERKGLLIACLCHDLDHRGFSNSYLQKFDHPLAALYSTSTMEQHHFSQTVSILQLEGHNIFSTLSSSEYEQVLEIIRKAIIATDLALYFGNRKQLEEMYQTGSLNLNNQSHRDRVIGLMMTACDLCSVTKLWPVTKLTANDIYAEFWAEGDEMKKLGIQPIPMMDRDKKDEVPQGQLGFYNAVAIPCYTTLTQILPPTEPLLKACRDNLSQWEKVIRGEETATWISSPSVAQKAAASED
Method: The dissociation constant KD of [^18F]IV was determined in homologous competitive binding experiments by nonlinear regression analysis. Cell membrane homogenates from PDE10A-transfected SF21 cells (100 µg protein/mL incubation volume) were incubated with solutions of six concentrations of IV (working concentration 10 pM–[…]), each spiked with a fixed concentration of [^18F]IV (working concentration 0.05–0.1 nM).
Crude membrane homogenates isolated from PDE10A-transfected SF21 cells were obtained from Biocrea GmbH, Radebeul, Germany. For competitive radioligand displacement experiments (n = 2), the membrane preparations were diluted with incubation buffer (50 mM Tris-HCl, pH 7.4 at room temperature, 5 mM MgCl2) and re-homogenized by passing through a 27-gauge needle. The protein (100 µg) was incubated with 0.05–0.1 nM of [^18F]IV and different concentrations of IV (10 pM–1 µM), diluted from a 10 mM stock in DMSO, at a final volume of 1 mL. Nonspecific binding was determined in the presence of 10 µM of I, and control incubation was carried out accordingly using crude membrane preparations obtained from non-transfected SF21 cells.
Incubation at room temperature was terminated after 120 min by rapid filtration (Brandel 48-channel harvester; Biomedical Research and Development Lab. Inc., Gaithersburg, MD, USA) on Whatman GF/B glass-fiber filters, pre-soaked for 90 min in 0.3% polyethylenimine (Sigma, Deisenhofen, Germany), followed by washing four times with 4 mL of ice-cold wash buffer (50 mM Tris-HCl, pH 7.4 at 4 °C). Filter-bound radioactivity was quantified using a calibrated γ-counter (Wallac WIZARD, Perkin Elmer, Waltham, MA, USA).
Each experiment was carried out in triplicate. The binding parameter IC50 was estimated using iterative non-linear curve fitting. KD of [^18F]IV was estimated directly from homologous competition curve with KD = IC50-[radioligand] as well as from the respective saturation isotherm by nonlinear regression analysis.

[3] = molecular target: T1, PDE10A; design: method as in earlier work; details: cited from earlier work
[4] = system: PDE3A; design: method as in earlier work; details: cited from earlier work
[5] = system: PDE4A; design: method as in earlier work; details: cited from earlier work
[6] = system: PDE 1B; design: method as in earlier work; details: cited from earlier work
[7] = system: PDE 2A; design: method as in earlier work; details: cited from earlier work
[8] = system: PDE 5A; design: method as in earlier work; details: cited from earlier work
[9] = system: PDE 6; design: method as in earlier work; details: cited from earlier work
[10] = system: PDE 7B; design: method as in earlier work; details: cited from earlier work
[11] = system: PDE 8A; design: method as in earlier work; details: cited from earlier work
[12] = system: PDE 9A; design: method as in earlier work; details: cited from earlier work
[13] = system: PDE 11A; design: method as in earlier work; details: cited from earlier work
[14] = molecular target: T1, PDE10A; details: cited from earlier work

| chromatographic logD ([1]; Multospher 120 RP-18 AQ column, Multospher) | chromatographic logD ([1]; Supelcosil ABZ+Plus column, Supelcosil) | IC50 ([2]; mean, n = 2, 0.05–0.1 nM [18F]IV) | IC50 ([2]; single experiments (n = 2)) | Structure (SMILES) | IC50 ([3]; PDE10A) | Ki ([3]; data to be published in detail elsewhere) | IC50 [4] | IC50 [5] | IC50 [6] | IC50 [7] | IC50 [8] | IC50 [9] | IC50 [10] | IC50 [11] | IC50 [12] | IC50 [13] | IC50 [14] | pIC50,PDE10A [14] |
| --- | --- | --- | --- | --- | --- | --- | --- | --- | --- | --- | --- | --- | --- | --- | --- | --- | --- | --- |
| 2.63 | 2.63 | 39.3 nM | 38.3 nM and 40.4 nM | COc1cc2c(N3CC[C@@H](Oc4cnc5ccccc5n4)C3)ncnc2cc1OCCF [IV, (R)-7-(2-fluoroethoxy)-6-methoxy-4-(3-(quinoxalin-2-yloxy)pyrrolidin-1-yl)quinazoline] | 105 nM | 53 nM | 88.7 nM | 562 nM | > 1000 nM | > 1000 nM | > 1000 nM | > 1000 nM | > 1000 nM | > 1000 nM | > 1000 nM | > 1000 nM |  |  |
|  |  |  |  | FCCn1cc(-c2ccncc2)c(-c2ccc(OCc3ccc4ccccc4n3)cc2)n1 [JNJ41510417] |  |  |  |  |  |  |  |  |  |  |  |  | 0.5 nM | 9.3 |
|  |  |  |  | Cc1cnc(COc2ccc(-c3nn(CCF)cc3-c3ccncc3)cc2)c(C)c1 [JNJ42259152] |  |  |  |  |  |  |  |  |  |  |  |  |  | 8.8 |
